What is called Ki is a dissociation constant, usually derived from enzyme kinetics or from competition with a known ligand.

Results on 25 compounds are retold here after patent US8598357B2, “Benzodioxole piperidine compounds” (Hoffmann-La Roche Inc., priority 2011, dated 2013).

Read-outs that look alike come from different tables or passages of the source.

Test [1] deals with D2 receptor (Homo sapiens (Human), UniProt P14416). Briefly: Radioligand binding assay ([3H]-spiperone) on membranes of HEK293 EBNA cells expressing human D2 receptor. As to conditions: human receptor in HEK293 EBNA cells; 0.7 nM [3H]-spiperone.
Description: (§1) HEK293 EBNA cells were transiently transfected with expression plasmids encoding for the human D2 or D3 or for the human 5-HT2A receptor, respectively. The cells were harvested 48 h post-transfection, washed three times with cold PBS and stored at −80° C. prior to use. The pellet was suspended in cold 50 mM Tris-HCl buffer containing 10 mM EDTA (pH 7.4) and was homogenized with a Polytron (Kinematica AG, Basel, Switzerland) for 20-30 sec at 12.000 rpm. After centrifugation at 48.000×g for 30 min at 4° C., the pellet was resuspended in cold 10 mM Tris-HCl buffer containing 0.1 mM EDTA (pH 7.4), homogenized, and centrifuged as above. This pellet was further resuspended in a smaller volume of ice cold 10 mM Tris-HCl buffer containing 0.1 mM EDTA (pH 7.4) and homogenized with a Polytron for 20-30 sec at 12.000 rpm. The protein content of this homogenate was determined with the Bio-Rad (Bradford) Protein Assay (Biorad Laboratories GmbH, München, Germany) according to the instructions of the manufacturer using gamma globulin as the standard. This homogenate was stored at −80° C. in aliquots and thawed immediately prior to use.
(§2) Aliquots of membrane preparations were thawed at RT, resuspended in assay buffer (D2, D3: 50 mM Tris-HCl, 120 mM NaCl, 5 mM MgCl2, 1 mM EDTA, 5 mM KCl, 1.5 mM CaCl2, pH=7.4; 5-HT2A: 50 mM Tris-HCl, 10 mM MgCl2, 1 mM EGTA, pH=7.4), homogenized with a Polytron for 20-30 sec at 12.000 rpm and adjusted to a final concentration of approximately 7.5 μg protein/well (D2, D3) and 15 μg protein/well (5-HT2A), respectively.
(§3) The nonspecific binding was determined with equally composed reaction mixtures in the presence of 10 μM unlabelled spiperone. Per well 45 μl of Microscint 40 (Perkin Elmer, Schwerzenbach, Switzerland) was added, plates for sealed, shaken for 20 min and counted for 3 min on a Topcount Microplate Scintillation Counter (Can berra Packard SA, Ziirich, Switzerland) with quenching correction.
(§4) The CPM value for each duplicate of a concentration of competing compound was averaged (y1), then the % specific binding was calculated according to the equation (((y1−non-specific)/(total binding−non-specific))×100). Graphs were plotted with the % specific binding using XLfit, a curve fitting program that iteratively plots the data using Levenberg-Marquardt algorithm. The single site competition analysis equation used was y=A+((B−A)/(1+((x/C)D))), where y is the % specific binding, A is the minimum y, B is the maximum y, C is the IC50, x is the log 10 of the concentration of the competing compound and D is the slope of the curve (the Hill Coefficient). […] The affinity constant (K) was calculated using the Cheng-Prusoff equation Ki=(IC50/1+([L]/Kd), where [L] is the concentration of radioligand and Kd is the dissociation constant of the radioligand at the receptor as determined by the saturation isotherm.
In test [2] the target is D3 receptor (Homo sapiens (Human), UniProt P35462). The test can be described thus: Radioligand binding assay ([3H]-spiperone) on membranes of HEK293 EBNA cells expressing human D3 receptor. As to conditions: read-out: D3 Ki; human receptor in HEK293 EBNA cells; 0.5 nM [3H]-spiperone.
Description: as §1, §2, §3, §4
The target in test [3] is 5-HT2A receptor (Homo sapiens (Human), UniProt P28223). Briefly: Radioligand binding assay ([3H]-ketanserin) on membranes of HEK293 EBNA cells expressing human 5-HT2A receptor. As to conditions: read-out: 5HT2A Ki.
Description: as §1, §2, §3, §4
Setting [4] is: human receptor in HEK293 EBNA cells, 1.1 nM [3H]-ketanserin.

Sequence of D2 receptor (P14416 whole entry): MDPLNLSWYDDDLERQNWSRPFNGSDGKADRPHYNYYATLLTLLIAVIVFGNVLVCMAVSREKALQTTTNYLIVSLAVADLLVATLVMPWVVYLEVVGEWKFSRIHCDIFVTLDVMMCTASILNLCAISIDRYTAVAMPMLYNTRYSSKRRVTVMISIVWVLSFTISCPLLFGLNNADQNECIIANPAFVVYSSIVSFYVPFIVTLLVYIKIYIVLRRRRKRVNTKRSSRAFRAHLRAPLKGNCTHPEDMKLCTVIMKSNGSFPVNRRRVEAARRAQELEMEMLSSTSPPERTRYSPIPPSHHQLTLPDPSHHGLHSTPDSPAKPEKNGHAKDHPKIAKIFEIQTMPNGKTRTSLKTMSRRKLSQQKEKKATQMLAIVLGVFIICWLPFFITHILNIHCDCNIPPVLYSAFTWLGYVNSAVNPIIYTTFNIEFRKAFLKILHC
Sequence of D3 receptor (P35462 whole entry): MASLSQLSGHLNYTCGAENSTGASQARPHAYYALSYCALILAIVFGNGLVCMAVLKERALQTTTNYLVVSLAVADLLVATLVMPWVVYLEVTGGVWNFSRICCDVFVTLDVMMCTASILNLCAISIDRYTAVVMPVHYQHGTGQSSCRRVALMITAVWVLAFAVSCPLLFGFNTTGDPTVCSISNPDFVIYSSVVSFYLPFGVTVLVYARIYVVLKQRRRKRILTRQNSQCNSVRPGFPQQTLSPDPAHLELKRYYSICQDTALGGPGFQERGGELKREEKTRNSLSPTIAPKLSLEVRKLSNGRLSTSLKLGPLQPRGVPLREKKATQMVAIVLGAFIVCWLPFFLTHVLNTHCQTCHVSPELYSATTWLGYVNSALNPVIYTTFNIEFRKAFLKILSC

In the case of `O=C(C[C@H]1CCCOC1)N[C@H]1CC[C@H](CCN2CCC(c3cccc4c3OCO4)CC2)CC1` [Example 43, Trans-N-{4-[2-(4-Benzo[1,3]dioxol-4-yl-piperidin-1-yl)-ethyl]-cyclohexyl}-2-(R)-tetrahydro-pyran-3-yl-acetamide], the inhibitory constant (Ki) was found to be 408 nM in test [1], 7.8 nM in test [2] and 19.8 nM in test [3] (setting [4]).
For `COC1(C(=O)N[C@H]2CC[C@H](CCN3CCC(c4cccc5c4OCO5)CC3)CC2)CCCCC1` [Example 67, 1-Methoxy-cyclohexanecarboxylic acid-trans-N-{4-[2-(4-benzo[1,3]dioxol-4-yl-piperidin-1-yl)-ethyl]-cyclohexyl}-amide] the same measures were 196 nM, 38.6 nM and 11.6 nM.
The corresponding values for `O=C(CC(F)(F)F)N[C@H]1CC[C@H](CCN2CCC(c3cccc4c3OCO4)CC2)CC1` [Example 10, Trans-N-{4-[2-(4-Benzo[1,3]dioxol-4-yl-piperidin-1-yl)-ethyl]-cyclohexyl}-3,3,3-trifluoro-propionamide] are 209 nM, 3.98 nM and 18.1 nM.
Consider `O=C(Nc1ccc(Cl)cc1)N[C@H]1CC[C@H](CCN2CCC(c3cccc4c3OCO4)CC2)CC1` [Example 77, N-trans-1-{4-[2-(4-Benzo[1,3]dioxol-4-yl-piperidin-1-yl)-ethyl]-cyclohexyl}-3-(4-chloro-phenyl)-urea], for which the Ki in test [1] is 2710 nM; in test [2], 23.6 nM; in test [3] (setting [4]) it was 224 nM.
Take `O=S(=O)(N[C@H]1CC[C@H](CCN2CCC(c3cccc4c3OCO4)CC2)CC1)c1ccc(F)cc1` [Example 71, N-trans-{4-[2-(4-Benzo[1,3]dioxol-4-yl-piperidin-1-yl)-ethyl]-cyclohexyl}-4-fluoro-benzenesulfonamide]: the Ki worked out at 104 nM in test [1], 2.63 nM in test [2] and 65.5 nM in test [3].
For `O=C(Cc1ccc2c(c1)OCO2)N[C@H]1CC[C@H](CCN2CCC(c3cccc4c3OCO4)CC2)CC1` [Example 59, 2-Benzo[1,3]dioxol-5-yl-trans-N-{4-[2-(4-benzo[1,3]dioxol-4-yl-piperidin-1-yl)-ethyl]-cyclohexyl}-acetamide], the values for the Ki in test [1], in test [2] and in test [3] (setting [4]) were 325 nM, 4.02 nM and 36.7 nM, respectively.
Turning to `O=C(N[C@H]1CC[C@H](CCN2CCC(c3cccc4c3OCO4)CC2)CC1)C1(O)CC1` [Example 49, 1-Hydroxy-cyclopropanecarboxylic acid-trans-{4-[2-(4-benzo[1,3]dioxol-4-yl-piperidin-1-yl)-ethyl]-cyclohexyl}-amide], the values for the Ki in test [1], in test [2] and in test [3] were 245 nM, 6.09 nM and 8.17 nM, respectively.
For `O=C(CC1(O)CCC1)N[C@H]1CC[C@H](CCN2CCC(c3cccc4c3OCO4)CC2)CC1` [Example 45, Trans-N-{4-[2-(4-Benzo[1,3]dioxol-4-yl-piperidin-1-yl)-ethyl]-cyclohexyl}-2-(1-hydroxy-cyclobutyl)-acetamide] the same measures were 262 nM, 6.41 nM and 26.8 nM.
The corresponding values for `O=C(N[C@H]1CC[C@H](CCN2CCC(c3cccc4c3OCO4)CC2)CC1)N1CCc2ccccc21` [Example 74, 2,3-Dihydro-indole-1-carboxylic acid N-trans-{4-[2-(4-benzo[1,3]dioxol-4-yl-piperidin-1-yl)-ethyl]-cyclohexyl}-amide] are 229 nM, 5.12 nM and 25.4 nM.
With `O=C(C[C@H]1CCCO1)N[C@H]1CC[C@H](CCN2CCC(c3cccc4c3OCO4)CC2)CC1` [Example 16, Trans-N-{4-[2-(4-Benzo[1,3]dioxol-4-yl-piperidin-1-yl)-ethyl]-cyclohexyl}-2-(R)-tetrahydro-furan-2-yl-acetamide], the Ki in test [1] was 228 nM; in test [2], 10.8 nM; in test [3], 28 nM.
For `O=S(=O)(N[C@H]1CC[C@H](CCN2CCC(c3cccc4c3OCO4)CC2)CC1)N1CCOCC1` [Example 79, Morpholine-4-sulfonic acid-Trans-N-{4-[2-(4-benzo[1,3]dioxol-4-yl-piperidin-1-yl)-ethyl]-cyclohexyl}-amide] the same measures were 229 nM, 6.11 nM and 56.1 nM.
The corresponding values for `COCC(=O)N[C@H]1CC[C@H](CCN2CCC(c3cccc4c3OCO4)CC2)CC1` [Example 13, Trans-N-{4-[2-(4-Benzo[1,3]dioxol-4-yl-piperidin-1-yl)-ethyl]-cyclohexyl}-2-methoxy-acetamide] are 507 nM, 18 nM and 14.6 nM.
For `O=C(N[C@H]1CC[C@H](CCN2CCC(c3cccc4c3OCO4)CC2)CC1)C1CC(Cl)C1` (stereo partly drawn) [Example 28, 3-Chloro-cyclobutanecarboxylic acid trans-{4-[2-(4-benzo[1,3]dioxol-4-yl-piperidin-1-yl)-ethyl]-cyclohexyl}-amide], the Ki in test [1] is 305 nM; in test [2] it was 6.36 nM; in test [3], 18.6 nM.
As for `CC(C)CC(=O)N[C@H]1CC[C@H](CCN2CCC(c3cccc4c3OCO4)CC2)CC1` [Example 24, Trans-N-{4-[2-(4-Benzo[1,3]dioxol-4-yl-piperidin-1-yl)-ethyl]-cyclohexyl}-3-methyl-butyramide], the Ki stood at 239 nM in test [1], 5 nM in test [2] and 28.5 nM in test [3] (setting [4]).
Consider `O=C(CC1(O)CCOCC1)N[C@H]1CC[C@H](CCN2CCC(c3cccc4c3OCO4)CC2)CC1` [Example 31, Trans-N-{4-[2-(4-Benzo[1,3]dioxol-4-yl-piperidin-1-yl)-ethyl]-cyclohexyl}-2-(4-hydroxy-tetrahydro-pyran-4-yl)-acetamide], for which the results for the Ki in test [1], in test [2] and in test [3] (setting [4]) were 306 nM, 7.15 nM and 24.9 nM, respectively.
As to `O=C(CC1(O)CCCCC1)N[C@H]1CC[C@H](CCN2CCC(c3cccc4c3OCO4)CC2)CC1` [Example 21, Trans-N-{4-[2-(4-Benzo[1,3]dioxol-4-yl-piperidin-1-yl)-ethyl]-cyclohexyl}-2-(1-hydroxy-cyclohexyl)-acetamide], the Ki in test [1] came out at 361 nM; in test [2], 10.4 nM; in test [3] it was 15.7 nM.
As for `CN(C)S(=O)(=O)N[C@H]1CC[C@H](CCN2CCC(c3cccc4c3OCO4)CC2)CC1` [Example 78, Trans-N-{4-[2-(4-benzo[1,3]dioxol-4-yl-piperidin-1-yl)-ethyl]-cyclohexyl}-N,N-dimethyl-sulfamide], the inhibitory constant (Ki) in test [1] came to 229 nM; in test [2], 11.6 nM; in test [3] (setting [4]), 20.7 nM.
For `C[C@@H](O)C(=O)N[C@H]1CC[C@H](CCN2CCC(c3cccc4c3OCO4)CC2)CC1` [Example 64, (R)-trans-N-{4-[2-(4-Benzo[1,3]dioxol-4-yl-piperidin-1-yl)-ethyl]-cyclohexyl}-2-hydroxy-propionamide], the inhibition constant Ki in test [1] worked out at 268 nM; in test [2], 11.1 nM; in test [3] (setting [4]) it was 10.7 nM.
As for `O=C(N[C@H]1CC[C@H](CCN2CCC(c3cccc4c3OCO4)CC2)CC1)C1CC1(F)F` (stereo partly drawn) [Example 26, Trans-2,2-Difluoro-cyclopropanecarboxylic acid {4-[2-(4-benzo[1,3]dioxol-4-yl-piperidin-1-yl)-ethyl]-cyclohexyl}-amide], the Ki stood at 194 nM in test [1], 7.72 nM in test [2] and 26.7 nM in test [3] (setting [4]).
With `O=C(N[C@H]1CC[C@H](CCN2CCC(c3cccc4c3OCO4)CC2)CC1)c1ccnc2ccccc12` [Example 57, Quinoline-4-carboxylic acid-trans-N-{4-[2-(4-benzo[1,3]dioxol-4-yl-piperidin-1-yl)-ethyl]-cyclohexyl}-amide], the Ki in test [1] was 370 nM; in test [2], 6.16 nM; in test [3] (setting [4]) it was 23.1 nM.
Turning to `CS(=O)(=O)N[C@H]1CC[C@H](CCN2CCC(c3cccc4c3OCO4)CC2)CC1` [Example 69, Trans-N-{4-[2-(4-Benzo[1,3]dioxol-4-yl-piperidin-1-yl)-ethyl]-cyclohexyl}-methanesulfonamide], the figures for the Ki in test [1], in test [2] and in test [3] (setting [4]) were 414 nM, 10.5 nM and 31.3 nM, respectively.
On to `CS(=O)(=O)CC(=O)N[C@H]1CC[C@H](CCN2CCC(c3cccc4c3OCO4)CC2)CC1` [Example 55, Trans-N-{4-[2-(4-Benzo[1,3]dioxol-4-yl-piperidin-1-yl)-ethyl]cyclohexyl}-2-methanesulfonyl-acetamide], for which the Ki in test [1] came out at 165 nM; in test [2] it was 4.63 nM; in test [3] (setting [4]), 27 nM.
As for `CN1CCC(C(=O)N[C@H]2CC[C@H](CCN3CCC(c4cccc5c4OCO5)CC3)CC2)CC1` [Example 61, 1-Methyl-piperidine-4-carboxylic acid-trans-N-{4-[2-(4-benzo[1,3]dioxol-4-yl-piperidin-1-yl)-ethyl]-cyclohexyl}-amide], the Ki in test [1] was 150 nM; in test [2], 35.1 nM; in test [3] (setting [4]), 5.91 nM.
Turning to `O=C(N[C@H]1CC[C@H](CCN2CCC(c3cccc4c3OCO4)CC2)CC1)C1(C(F)(F)F)CC1` [Example 50, Trifluoromethyl-cyclopropanecarboxylic acid-trans-N-{4-[2-(4-benzo[1,3]dioxol-4-yl-piperidin-1-yl)-ethyl]-cyclohexyl}-amide], the Ki in test [1] was determined as 246 nM; in test [2], 40.9 nM; in test [3] (setting [4]), 19 nM.
Consider `COC(C)CC(=O)N[C@H]1CC[C@H](CCN2CCC(c3cccc4c3OCO4)CC2)CC1` (stereo partly drawn) [Example 27, Trans-N-{4-[2-(4-Benzo[1,3]dioxol-4-yl-piperidin-1-yl)-ethyl]-cyclohexyl}-3-methoxy-butyramide], for which the values for the Ki in test [1], in test [2] and in test [3] were 402 nM, 7.52 nM and 33.6 nM, respectively.
